Assay results: patent publication US20100136537A1, “PHOTORECEPTOR PRECURSOR CELLS” (THE REGENTS OF THE UNIVERSITY OF MICHIGAN, priority 2006, published 2010)
“Also recorded” adds a separate entry of the source.

Legend:
photoreceptors [1] = settings: MNU 60 mg/kg i.p.; cited from earlier work
photoreceptors [2] = assay: MNU-induced photoreceptor degeneration in adult C57Bl/6 mice (TUNEL, immunostaining, ERG); assay type: in vivo, mouse
Experimental: Preparation of Donor Cells and Recipients. Donor cells were prepared from P0-P2 retinas of the neural retina leucine zipper (Nrl)-GFP transgenic mice (See Example 1). Nrl is a basic motif-leucine zipper transcription factor that is preferentially expressed in rod photoreceptors and required for rod differentiation (See, e.g., Swaroop et al., Proc Natl Acad Sci USA. 1992; 89:266-270; and Mears et al., Nat Genet. 2001; 29:447-452). The Nrl promoter directed expression of enhanced green fluorescent protein (EGFP) specifically to new-born rod precursors and mature rods in the Nrl-GFP transgenic mouse. Eyes were enucleated, and the neural retinas dissected and dissociated with a Papain-Protease-DNase solution. N-methyl-N-nitrosourea (MNU; Sigma, St. Louis, Mo.), an alkylating agent that induces photoreceptor degeneration by forming 7-methyldeoxyguanosine DNA adducts in the nuclei of photoreceptors, was administered at a dose of 60 mg/kg to adult C57B1/6 mice by intraperitoneal injection 7 days before transplantation (See, e.g., Doonan et al., J Neurosci. 2003; 23:5723-5731; Ogino et al., Toxicol Pathol. 1993; 21:21-25; Yuge et al., In Vivo. 1996; 10:483-488).
Tissue Processing. Two or four weeks after surgery, the animals were perfused transcardially with 4% paraformaldehyde (Merck, Darmstadt, Germany) in 0.1 M phosphate buffer after sedation with ketamine (15 mg/kg). Eyes were removed and immersion fixed with 4% paraformaldehyde at 4° C. overnight and then in 25% sucrose-PBS to cryoprotect. The specimens were embedded in an optimal cutting temperature compound (Miles, Elkhart, Ind.) and consecutive 12-μm frozen sections were sliced on a cryostat.
Immunofluorescence. […]
Electrophysiology. […] Animals were placed on a regulated heating pad under dim red illumination and electroretinograms (ERGs) were recorded with a gold loop electrode placed on the corneal surface maintained with 3% methylcellulose gel. […] The amplitude of the a-wave was measured from the prestimulus baseline to the a-wave trough. […]

mouse Nrl promoter [3] = assay: Nrl promoter-luciferase assay in serum-deprived Y79 cells; assay type: cell-based, human; settings: pGL3-NI and pGL3-Nm constructs (with putative RAREs), 10 μM RA, 24 h
Source text: (§1) Plasmid Constructs. DNA fragments of 2.5 kb (Nl), 1.2 kb (Nm), and 200 by (Ns) from the 5′-flanking region of the mouse Nrl promoter (GENBANK: AY526079; (See Akimoto et al., (2006) Proc. Natl. Acad. Sci. U.S.A. 103, 3890-3895) were amplified and cloned into pGL3-basic vector (Promega, Madison, Wis.) in-frame with the luciferase reporter gene. The following site-directed mutants of the Nrl promoter were generated from pGL3-Nl using the QUICKCHANGE site-directed mutagenesis kit (Stratagene, La Jolla, Calif.) and sequence-verified: pGL3-Nl-mutIII-1, pGL3-Nl-mutIII-2, and pGL3-Nl-mutII-1, containing deletion of the putative RAREs at positions −781 to −767, −709 to −700, and −453 to −443, respectively.
Transient Transfection and Luciferase Assay. Transient transfection of Y79 cells was performed using FUGENE 6 reagent (Roche Diagnostics, Indianapolis, Ind.). Prior to transfection, cells were serum-starved 24 h in OPTI-MEM (Invitrogen), diluted to 1.5×10^5 cells in 250 μl and seeded into 24-well plates. Transfection was performed with 0.5 μg of promoter-luciferase construct and 1.5 μl of FUGENE 6. […] Luciferase activity was measured using the Luciferase Assay System (Promega, Madison, Wis.). Experiments were repeated at least three times, and the luciferase activity was calculated as a fold change from the base line luciferase activity obtained in the presence of vector only.

NRL [4] = assay: NRL expression in serum-starved Y79 cells (immunoblot, Northern blot); assay type: cell-based, human; settings: serum-starved Y79 cells, 10 μM RA
Experimental: Cell Culture. Y79 human retinoblastoma cells (ATCC HTB 18) and HEK293 (ATCC CRL-1573) were maintained in RPMI 1640 and Dulbecco's modified Eagle's medium, respectively, under standard conditions with 15% (v/v) fetal bovine serum (FBS), penicillin G (100 units/ml), and streptomycin (100 μg/ml) at 37° C. and 5% CO2. For serum starvation and RA treatment experiments, Y79 cells (5×10^4) were cultured in the presence or absence of the serum (same batch of serum was used in all the experiments), at RA, 9-cis-RA, cycloheximide (CHX), and 4-(E-2-(5,6,7,8-tetrahydro-5,5,8,8-tetramethyl-2-naphthalenl)-1-propenyl) benzoic acid (TTNPB) at indicated concentrations. Me2SO or ethanol was added to Y79 cells in lieu of the soluble factors as negative control.
For protein synthesis inhibition experiments, Y79 cells were serum-starved for 24 h, and then simultaneously treated with RA and CHX for 8 or 24 h. NRL expression was analyzed by immunoblotting. In another set of experiments, serum-starved Y79 cells were first incubated with RA alone for 8 or 24 h and then CHX was added. Cell extracts were then analyzed 24 h later for examining NRL expression by immunoblotting.
(§2) Protein Expression Analysis.

mouse Nrl promoter [5] = assay: Nrl promoter-luciferase assay in HEK293 cells; assay type: cell-based; settings: dose-dependent response
Source text: as §1
Transient transfection of HEK293 (ATCC CRL-1573) cells was performed using LIPOFECTAMINE (Invitrogen) according to the manufacturer's instructions. The wild type and mutant Nrl promoter-luciferase constructs, and pCMV-β-gal were added to the cells at a concentration of 0.1 μg and 0.05 μg, respectively. After 3 h, 100 μl of Dulbecco's modified Eagle's medium with 0 or 500 nM at RA was added to each well. Cells were harvested after 24 h in 100 μl of GLO lysis buffer (Promega), and luciferase activity was measured.

NRL [6] = assay: NRL expression in newborn rat retinal cell cultures (immunoblot); assay type: cell-based
Experimental: Primary cultures of new-born rat retinal cells and enriched adult porcine photoreceptors were prepared as described (See Traverso et al., (2003) Investig. Ophthalmol. Vis. Sci. 44, 4550-4558). For newborn rat retinal cultures, rat pups were anesthetized and decapitated, the retinas dissected into CO2-independent Dulbecco's modified Eagle's medium and chopped into small fragments. The fragments were washed twice in Ca/Mg-free PBS and then digested in PBS containing 0.1% papain for 25 min at 37° C. Tissue was dissociated by repeated passage through flame polished Pasteur pipettes, then seeded into tissue culture plates precoated with laminin, in Neurobasal A medium (Invitrogen) containing 2% FBS. After 48 h, medium was changed to a chemically defined formula (Neurobasal A supplemented with B27) for a further 48 h, and then treated.
Experimental Treatments and Immunochemistry. […] RA was added to test wells (1, 5, 10, 20, and 40 μM, stock solution prepared in Me2SO, 10 μl/well).
as §2

NRL [7] = assay: NRL expression in adult pig photoreceptor cultures (immunoblot, immunocytochemistry); settings: 24 h
CEP290 = settings: previous studies; cited from earlier work
[8] = system: chondroitin sulfate proteoglycans (CSPG); assay: CS-56 staining of glial scar after subretinal injection with or without ChABC; assay type: in vivo, mouse; settings: ChABC 0.025 U/μl, 1 μl subretinal, MNU-treated mice
Experimental: Transplantation Procedure. One μl of dissociated Nrl-GFP+ photoreceptor cell suspension (1.0×10^5 cells/μl each) without or with chondroitinase ABC (ChABC) (0.025 U/μl, Wako, Tokyo, Japan) (Nrl group, Nrl/ChABC group, respectively) or 1 μl of PBS (sham group) was drawn into a tapered glass pipette connected to a modified tube and injected through the sclera into the subretinal space. The procedure was performed under surgical microscope.
Immunofluorescence. Sections were washed in PBS, preincubated with a blocking solution (containing 20% skim milk and 0.3% Triton X-100 in PBS) for 30 minutes, and then incubated overnight at 4° C. with primary antibodies diluted in a blocking solution (containing 5% skim milk and 0.3% Triton X-100 in PBS). The primary antibodies and working dilutions were as follows: mouse and rabbit anti-GFP (1:500, Molecular Probes, Eugene, Oreg.), mouse monoclonal CS-56 IgM antibody (1:200, Sigma) that reacts specifically with chondroitin sulfate containing proteoglycans, and anti-vesicular glutamate transporter 1 (VGluT1; 1:100, Chemicon, Hampshire, UK), a marker for active presynaptic formation (See, e.g., Fujiyama et al., J Comp Neurol. 2003; 465:234-249). Sections were incubated for 90 minutes with secondary antibodies diluted 1:500 in PBS containing 5% skim milk and 0.3% Triton X-100. […]

For `CN(N=O)C(N)=O` [MNU, N-methyl-N-nitrosourea], the “time to apoptosis in all photoreceptors after injection” value (photoreceptors [1]) is given as at most 1 week, the “dark-adapted ERG response” value (photoreceptors [2]; 1 week after single i.p. MNU 60 mg/kg) is given as “does not detect a response; also recorded: no responses were detectable” and the “state of outer nuclear layer / photoreceptor layer” value (photoreceptors [2]; 1 week after single i.p. MNU 60 mg/kg, VGluT1 and Cytox blue staining) is given as “completely destroyed; also recorded: essentially destroyed”. For the same compound, the “TUNEL labeling of retina” value (photoreceptors [2]; 2 days after single i.p. MNU 60 mg/kg) was “nuclear labeling in the majority of the photoreceptor cells”.
With `CC1=C(/C=C/C(C)=C/C=C/C(C)=C/C(=O)O)C(C)(C)CCC1` [at RA] the “increase in luciferase activity” value (mouse Nrl promoter [3]) was over 2 fold, the “incubation time after which an increase in NRL protein was observed” value (NRL [4]) was 8 h and the “at RA concentration of maximum effect on pGL3-Nl luciferase activity” value (mouse Nrl promoter [5]) was 500 nM. For the same compound, the toxicity in culture (NRL [6]; doses above 5-20 μM (40 μM RA), newborn rat retina cells) was “some toxicity; also recorded: toxic for cell survival”, the “RA concentration giving maximal effects on NRL expression” value (NRL [6]; newborn rat retinal cultures, 24 h) was 5 to 20 µM and the “RA concentration giving maximal effects on NRL expression” value (NRL [7]) was 5 to 20 µM.
In the case of `COC(=O)Nc1nc2ccc(C(=O)c3cccs3)cc2[nH]1` [nocodazole], the “centrosomal localization of CEP290 after microtubule depolymerization” value (CEP290) is listed as “does not alter centrosomal localization of CEP290”.
In the case of chondroitinase ABC [ChABC], the “degradation of CSPG in the ECM of the glial scar at the injection site (CS-56 staining)” value [8] is reported as “substantially, if not completely, degraded”.
